Results reported in US20080085893A1, “MATRIX METALLOPROTEASE INHIBITORS” (priority 2006, published 2008).
Where “and” joins values, the source holds several entries; their conditions need not be identical. Equal entries are not always repeated. Where two headings read alike, the source gives them in different places.

Assays:
Type in all cases: biochemical
[1] = molecular target: T1, human MMP-2 (amino acids 1-660) (Homo sapiens, UniProt P08253); assay: MMP dose response assay for determining IC50, MMP-2; settings: recombinant enzyme, fluorescent-quench substrate 100 nM; read-out: MMP-2
T1 construct: human MMP-2 (amino acids 1-660); made in house
T1 sequence (P08253 110-660): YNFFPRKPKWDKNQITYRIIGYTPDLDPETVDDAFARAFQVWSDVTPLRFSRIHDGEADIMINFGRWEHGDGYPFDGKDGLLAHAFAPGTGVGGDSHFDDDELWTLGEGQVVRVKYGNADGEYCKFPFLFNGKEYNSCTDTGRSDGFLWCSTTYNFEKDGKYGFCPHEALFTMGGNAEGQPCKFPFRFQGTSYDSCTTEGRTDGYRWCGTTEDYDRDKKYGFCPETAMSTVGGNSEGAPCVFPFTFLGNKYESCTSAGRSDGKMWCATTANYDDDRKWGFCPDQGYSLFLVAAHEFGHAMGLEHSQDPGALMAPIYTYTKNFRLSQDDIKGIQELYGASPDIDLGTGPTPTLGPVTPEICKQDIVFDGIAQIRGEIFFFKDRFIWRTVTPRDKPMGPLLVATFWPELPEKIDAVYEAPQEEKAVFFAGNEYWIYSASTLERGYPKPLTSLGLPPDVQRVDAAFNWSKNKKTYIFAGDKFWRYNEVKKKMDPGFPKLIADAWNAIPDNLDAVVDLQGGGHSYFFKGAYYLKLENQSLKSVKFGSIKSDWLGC
Method: (§1) MMP Dose Response Assay for Determining IC50
(§2) The following method was used for determining IC50 values of different inhibitor compounds against multiple MMP enzymes. Frozen stocks of recombinantly produced MMPs were prepared in assay buffer (50 mM HEPES pH 7.4, 10 mM CaCl2, 0.05% Brij-35). […] Enzyme concentrations in the assay were determined empirically and set such that proteolytic activity was maintained in a linear range over the time-course of the experiment. […] Each concentration for each test compound was tested in triplicate. MMP enzymes were equilibrated with compounds for 1 hour at room temperature, then a fluorescent-quench substrate (Acetyl-Cys(Eu)-Pro-Leu-Gly-Leu-Lys-(QSY7)-Ala-Arg-amide) was added to a final concentration of 100 nM. […] Data was analyzed by first calculating average background value from wells that contained only substrate, and this value was subtracted from the entire plate. The 100%, or maximum value, was determined by averaging control wells that contained enzyme, substrate and DMSO. For each well, the percent of control was calculated by dividing the well value by the average DMSO value obtained above.

[2] = molecular target: T2, human MMP-9 (amino acids 107-446) (Homo sapiens, UniProt P14780); assay: MMP dose response assay for determining IC50, MMP-9
T2 construct: human MMP-9 (amino acids 107-446); made in house
T2 sequence (P14780 107-446): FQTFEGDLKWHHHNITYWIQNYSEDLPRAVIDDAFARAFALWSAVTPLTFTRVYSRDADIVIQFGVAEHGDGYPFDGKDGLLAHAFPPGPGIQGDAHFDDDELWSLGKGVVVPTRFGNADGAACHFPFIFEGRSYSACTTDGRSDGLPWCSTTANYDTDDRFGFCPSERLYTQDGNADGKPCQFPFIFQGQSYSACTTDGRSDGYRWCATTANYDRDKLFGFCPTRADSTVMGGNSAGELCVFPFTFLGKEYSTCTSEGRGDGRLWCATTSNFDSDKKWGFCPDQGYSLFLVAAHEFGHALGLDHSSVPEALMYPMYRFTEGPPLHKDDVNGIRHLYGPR
Method: as §1, §2

[3] = molecular target: T3, human MMP-1 (amino acids 100-262) (Homo sapiens, UniProt P03956); assay: MMP dose response assay for determining IC50, MMP-1; settings: recombinant catalytic domain, fluorescent-quench substrate 100 nM
T3 construct: human MMP-1 (amino acids 100-262); made in house
T3 sequence (P03956 100-262): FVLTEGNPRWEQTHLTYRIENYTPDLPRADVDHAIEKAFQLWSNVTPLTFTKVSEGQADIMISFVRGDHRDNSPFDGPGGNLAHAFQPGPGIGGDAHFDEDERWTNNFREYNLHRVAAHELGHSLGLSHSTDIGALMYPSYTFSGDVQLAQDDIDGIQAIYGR
Method: as §1, §2

[4] = recombinant enzyme, fluorescent-quench substrate 100 nM, read-out: MMP-9

Row | Structure (SMILES) | IC50 [1] | IC50 [2, 4] | IC50 [3] | IC50 ([2]; MMP-9 (nM))
1 | CO[C@@H](CN(c1ccc(Oc2ccc(C)cc2)cc1)S(C)(=O)=O)C(=O)NO [Compound 2, N-Hydroxy (2S)-2-methoxy-3-{N-[4-(4-methylphenoxy)phenyl], N-methanesulfonylamino}propionamide] | 43.6 nM and 28.8 nM | 4.15 nM | > 10000 nM | 3.73 nM
2 | CS(=O)(=O)N(C[C@@H](O)C(=O)NO)c1ccc(Oc2ccccc2)cc1 [Example 11, N-Hydroxy (2R)-2-hydroxy-3-[N-(4-phenoxy)phenyl,N-methanesulfonylamino]propionamide] | 472 nM | 106 nM | > 10000 nM | –
3 | CO[C@H](CN(c1ccc(Oc2ccc(C)cc2)cc1)S(C)(=O)=O)C(=O)NO [Example 17, N-Hydroxy (2R)-2-methoxy-3-{N-[4-(4-methylphenoxy)phenyl],N-methanesulfonylamino}propionamide] | 101 nM | – | > 10000 nM | 12.7 nM
4 | Cc1ccc(Oc2ccc(N(C[C@H](Nc3ccccc3)C(=O)NO)S(C)(=O)=O)cc2)cc1 [Example 30, N-Hydroxy (2S)-3-{N-[4-(4-methylphenoxy)phenyl],N-methanesulfonylamino}-2-phenylaminopropionamide] | 18.6 nM and 15.4 nM and 15.3 nM and 5.27 nM and 9.5 nM and 9.9 nM and 7.96 nM | – | > 10000 nM and 6220 nM and 8730 nM and 7280 nM and 7460 nM | –
5 | Cc1ccc(C#Cc2ccc(N(C[C@H](O)C(=O)NO)S(C)(=O)=O)cc2)cc1 [Example 63, N-Hydroxy (2S)-2-hydroxy-3-{N-[4-(4-methylphenylacetylene)phenyl],N-methanesulfonylamino}propionamide] | 28.2 nM and 65.9 nM | – | > 10000 nM | –
6 | CS(=O)(=O)N(C[C@@H](C(=O)NO)N1CCc2ccccc2C1)c1ccc(Oc2ccc(C(F)(F)F)cc2)cc1 [Example 73, N-Hydroxy (2S)-2-(1,2,3,4-tetrahydroisoquinolin-2-yl)-3-{N-[4-(4-trifluoromethylphenoxy)phenyl],N-methanesulfonylamino}propionamide] | – | – | > 10000 nM | –
7 | C[C@@H]1CN([C@@H](CN(c2ccc(Oc3ccc(Cl)cc3)cc2)S(C)(=O)=O)C(=O)NO)C[C@H](C)O1 [Example 95, N-Hydroxy (2S)-3-{N-[4-(4-chlorophenoxy)phenyl],N-methanesulfonylamino}-2-(cis-2,6-dimethylmorpholin-4-yl)propionamide] | 2.54 nM and 3.69 nM and 1.28 nM | 0.57 nM and 0.64 nM and 0.17 nM | – | –
8 | CS(=O)(=O)N(C[C@@H](C(=O)NO)N1CCCCC1)c1ccc(Oc2ccc(C(F)(F)F)cc2)cc1 [Example 96, N-Hydroxy (2S)-2-(piperidin-1-yl)-3-{N-[4-(4-trifluoromethylphenoxy)phenyl],N-methanesulfonylamino}propionamide] | 7.55 nM | 2.34 nM | – | –
9 | CN(O)C(=O)[C@H](CN(c1ccc(Oc2ccc(C(F)(F)F)cc2)cc1)S(C)(=O)=O)N1CCOCC1 [Example 98, N-Hydroxy,N-methyl (2S)-2-(morpholin-4-yl)-3-{N-[4-(4-trifluoromethylphenoxy)phenyl],N-methanesulfonylamino}propionamide] | 447 nM | 159 nM | – | –
10 | CC(C)O[C@@H](CN(c1ccc(Oc2ccc(C(F)(F)F)cc2)cc1)S(C)(=O)=O)C(=O)NO [Example 99, N-Hydroxy (2S)-2-(2-propoxy)-3-{N-[4-(4-trifluoromethylphenoxy)phenyl],N-methanesulfonylamino}propionamide] | 50.3 nM | 8.18 nM | – | –
11 | Cc1ccc(Oc2ccc(N(C[C@@H](C(=O)NO)N3C[C@@H](C)O[C@@H](C)C3)S(C)(=O)=O)cc2)cc1 [Example 100, N-Hydroxy (2S)-2-(cis-2,6-dimethylmorpholin-4-yl)-3-{N-[4-(4-methylphenoxy)phenyl],N-methanesulfonylamino}propionamide] | 2.83 nM | 0.68 nM | – | –
12 | CS(=O)(=O)N(C[C@H](O)C(=O)N(O)CCN1CCOCC1)c1ccc(Oc2ccc(Cl)cc2)cc1 [Example 101, N-Hydroxy,N-[2-(morpholin-4-yl)ethyl](2S)-2-hydroxy-3-{N-[4-(4-chlorophenoxy)phenyl],N-methanesulfonylamino}propionamide] | 1400 nM | 206 nM | – | –
13 | C=CCN(O)C(=O)[C@H](CN(c1ccc(Oc2ccc(C)cc2)cc1)S(C)(=O)=O)N1C[C@@H](C)O[C@@H](C)C1 [Example 102, N-(3-Allyl),N-hydroxy (2S)-2-(cis-2,6-dimethylmorpholin-4-yl)-3-{N-[4-(4-methylphenoxy)phenyl],N-methanesulfonylamino}propionamide] | 23 nM and 24.8 nM | 6.53 nM and 6.01 nM | – | –

The next lines start with results.

Row | IC50 [1] | IC50 [2, 4] | IC50 [3] | Structure (SMILES) | IC50 ([2]; MMP-9 (nM))
14 | 39.5 nM and 30.3 nM | 5.04 nM and 4.35 nM | > 10000 nM | CS(=O)(=O)N(C[C@H](O)C(=O)NO)c1ccc(Oc2ccc(Cl)cc2)cc1 [Compound 1, N-Hydroxy (2S)-2-hydroxy-3-{N-[4-(4-chlorophenoxy)phenyl], N-methanesulfonylamino}propionamide] | –
15 | 53 nM and 86.7 nM | 4.89 nM and 6 nM | > 10000 nM | Cc1ccc(Oc2ccc(N(C[C@H](NC(=O)C(C)C)C(=O)NO)S(C)(=O)=O)cc2)cc1 [Example 4, N-Hydroxy (2S)-3-{N-[4-(4-methylphenoxy)phenyl],N-methanesulfonylamino}-2-(2-propylcarbonylamino)propionamide] | –
16 | 19.1 nM and 22.6 nM and 29.7 nM and 16.6 nM and 18.9 nM and 14.5 nM | 7.4 nM and 7.76 nM and 7.44 nM and 4.82 nM and 2.17 nM and 3.57 nM | 5570 nM | Cc1ccc(Oc2ccc(N(CC(C)(O)C(=O)NO)S(C)(=O)=O)cc2)cc1 (centres unmarked) [Example 6, N-Hydroxy 2-hydroxy-2-methyl-3-{N-[4-(4-methylphenoxy)phenyl],N-methanesulfonylamino}propionamide] | –
17 | 306 nM and 189 nM | 49.7 nM and 29.2 nM | > 10000 nM | CS(=O)(=O)N(C[C@H](O)C(=O)NO)c1ccc(Oc2ccccc2)cc1 [Example 12, N-Hydroxy (2S)-2-hydroxy-3-[N-(4-phenoxy)phenyl,N-methanesulfonylamino]propionamide] | –
18 | 24.1 nM and 44.9 nM | 5.57 nM and 7.16 nM | 9680 nM and 5430 nM | CS(=O)(=O)N(C[C@@H](O)C(=O)NO)c1ccc(Oc2ccc(Cl)cc2)cc1 [Example 13, N-Hydroxy (2R)-2-hydroxy-3-{N-[4-(4-chlorophenoxy)phenyl],N-methanesulfonylamino}propionamide] | –
19 | 582 nM | 92.9 nM | > 10000 nM | Cc1ccc(Oc2ccc(N(C[C@H](O)C(=O)NO)S(=O)(=O)Cc3ccccc3)cc2)cc1 [Example 14, N-Hydroxy (2S)-2-hydroxy-3-{N-[4-(4-methylphenoxy)phenyl],N-phenylmethylsulfonylamino}propionamide] | –
20 | 509 nM | 124 nM | > 10000 nM | CCCS(=O)(=O)N(C[C@H](O)C(=O)NO)c1ccc(Oc2ccc(C)cc2)cc1 [Example 15, N-Hydroxy (2S)-2-hydroxy-3-{N-[4-(4-methylphenoxy)phenyl],N-(1-propyl)sulfonylamino}propionamide] | –
21 | – | 286 nM | > 10000 nM | Cc1ccc(Oc2ccc(N(C[C@H](O)C(=O)NO)S(=O)(=O)C(C)C)cc2)cc1 [Example 16, N-Hydroxy (2S)-2-hydroxy-3-{N-[4-(4-methylphenoxy)phenyl],N-(2-propyl)sulfonylamino}propionamide] | –
22 | 3.63 nM and 2.51 nM and 3.25 nM and 5.11 nM and 5.46 nM and 4.21 nM | 0.61 nM and 0.75 nM and 0.3 nM and 0.41 nM and 0.45 nM | > 10000 nM and 9560 nM and 4170 nM and 8390 nM and 6950 nM | Cc1ccc(Oc2ccc(N(C[C@H](NC(C)C)C(=O)NO)S(C)(=O)=O)cc2)cc1 [Example 18, N-Hydroxy (2S)-3-{N-[4-(4-methylphenoxy)phenyl],N-methanesulfonylamino}-2-[(2-propyl)amino]propionamide] | –
23 | – | 243 nM | > 10000 nM | Cc1ccc(Oc2ccc(N(C[C@H](O)C(=O)NO)S(=O)(=O)N(C)C)cc2)cc1 [Example 19, N-Hydroxy (2S)-2-hydroxy-3-{N-[4-(4-methylphenoxy)phenyl],N-(dimethylamino)sulfonylamino}propionamide] | –
24 | – | 344 nM | > 10000 nM | Cc1ccc(Oc2ccc(N(C[C@H](O)C(=O)NO)S(=O)(=O)c3ccccc3)cc2)cc1 [Example 21, N-Hydroxy (2S)-2-hydroxy-3-{N-[4-(4-methylphenoxy)phenyl],N-phenylsulfonylamino}propionamide] | –
